According to ChEMBL document CHEMBL5252638, “Novel triphenylphosphonium amphiphilic conjugates of glycerolipid type: synthesis, cytotoxic and antibacterial activity, and targeted cancer cell delivery” (RSC Med Chem, 2023):
pIC50: −log10 of the molar value.

How the values were obtained:
[1] = system: A549; assay: Cytotoxicity against human A549 cells assessed as number of viable cells measured after 48 hrs by MTT based colorimetric assay; type: functional, cell-based; conditions: A549, 48 h
[2] = system: Escherichia coli; assay: Antimicrobial activity against Escherichia coli ATCC 25922 by serial microdilution method; type: functional
[3] = system: SK-OV-3; assay: Cytotoxicity against human SK-OV-3 cells assessed as number of viable cells measured after 48 hrs by MTT based colorimetric assay; type: functional, cell-based; conditions: SK-OV-3, 48 h
[4] = system: HuTu80; assay: Cytotoxicity against human HuTu80 cells assessed as number of viable cells measured after 48 hrs by MTT based colorimetric assay; type: functional, cell-based; conditions: HuTu80, 48 h
[5] = system: DU-145; assay: Cytotoxicity against human DU-145 cells assessed as number of viable cells measured after 48 hrs by MTT based colorimetric assay; type: functional, cell-based; conditions: DU-145, 48 h
[6] = system: PANC-1; assay: Cytotoxicity against human PANC-1 cells assessed as number of viable cells measured after 48 hrs by MTT based colorimetric assay; type: functional, cell-based; conditions: PANC-1, 48 h
[7] = system: HepG2; assay: Cytotoxicity against human HepG2 cells assessed as number of viable cells measured after 48 hrs by MTT based colorimetric assay; type: functional, cell-based; conditions: HepG2, 48 h
[8] = system: Staphylococcus aureus; assay: Bactericidal against Staphylococcus aureus ATCC 6538 P FDA 209P by serial microdilution method; type: functional
[9] = organism: Homo sapiens; assay: Selectivity index, ratio of IC50 for human Chang liver cells to IC50 for human HuTu80 cells
[10] = organism: Homo sapiens; assay: Selectivity index, ratio of IC50 for human Chang liver cells to IC50 for human SK-OV-3 cells
[11] = system: MCF7; assay: Cytotoxicity against human MCF7 cells assessed as number of viable cells measured after 48 hrs by MTT based colorimetric assay; type: functional, cell-based; conditions: MCF7, 48 h
[12] = system: PC-3; assay: Cytotoxicity against human PC-3 cells assessed as number of viable cells measured after 48 hrs by MTT based colorimetric assay; type: functional, cell-based; conditions: PC-3, 48 h
[13] = system: Enterococcus faecalis; assay: Antimicrobial activity against Enterococcus faecalis ATCC 29212 by serial microdilution method; type: functional
[14] = Cytotoxicity against human WI-38 cells assessed as number of viable cells measured after 48 hrs by MTT based colorimetric assay; type: toxicity, cell-based
[15] = system: Staphylococcus aureus; assay: Antimicrobial activity against Staphylococcus aureus ATCC 6538 P FDA 209P by serial microdilution method; type: functional
[16] = system: Bacillus cereus; assay: Antimicrobial activity against Bacillus cereus ATCC 10702 NCTC 8035 by serial microdilution method; type: functional
[17] = system: Bacillus cereus; assay: Bactericidal activity against Bacillus cereus ATCC 10702 NCTC 8035 by serial microdilution method; type: functional
[18] = organism: Homo sapiens; assay: Selectivity index, ratio of IC50 for human Chang liver cells to IC50 for human MCF7 cells
[19] = Cytotoxicity against human Chang liver cells assessed as number of viable cells measured after 48 hrs by MTT based colorimetric assay; type: toxicity, cell-based
[20] = system: T98G; assay: Cytotoxicity against human T98G cells assessed as number of viable cells measured after 48 hrs by MTT based colorimetric assay; type: functional, cell-based
[21] = system: Escherichia coli; assay: Bactericidal activity against Escherichia coli ATCC 25922 by serial microdilution method; type: functional
[22] = organism: Homo sapiens; assay: Selectivity index, ratio of IC50 for human Chang liver cells to IC50 for human DU-145 cells
[23] = system: M-HeLa; assay: Cytotoxicity against human HelaM cells assessed as number of viable cells measured after 48 hrs by MTT based colorimetric assay; type: functional, cell-based
[24] = system: Enterococcus faecalis; assay: Bactericidal activity against Enterococcus faecalis ATCC 29212 by serial microdilution method; type: functional
[25] = organism: Homo sapiens; assay: Selectivity index, ratio of IC50 for human Chang liver cells to IC50 for human PC-3 cells
[26] = organism: Homo sapiens; assay: Selectivity index, ratio of IC50 for human WI-38 cells to IC50 for human HuTu80 cells
[27] = organism: Homo sapiens; assay: Selectivity index, ratio of IC50 for human WI-38 cells to IC50 for human HelaM cells
[28] = Selectivity index, ratio of IC50 for human WI-38 cells to IC50 for human MCF7 cells; type: toxicity; conditions: WI-38 cells and MCF7 cells, read-out: Ratio IC50
[29] = organism: Homo sapiens; assay: Selectivity index, ratio of IC50 for human WI-38 cells to IC50 for human SK-OV-3 cells
[30] = organism: Homo sapiens; assay: Selectivity index, ratio of IC50 for human WI-38 cells to IC50 for human PANC-1 cells
[31] = Selectivity index, ratio of IC50 for human WI-38 cells to IC50 for human PC-3 cells; type: toxicity; conditions: WI-38 cells and PC-3 cells, read-out: Ratio IC50

| MIC [2] | MIC [15] | MIC [16] | Ratio IC50 [22] | Compound | pIC50 [1] | pIC50 [3] | pIC50 [4] | pIC50 [5] | pIC50 [6] | pIC50 [7] | MBC [8] | pIC50 [11] | pIC50 [12] | IC50 at 48 h [14] | IC50 at 48 h [19] | pIC50 [20] | MBC [21] | pIC50 [23] | MBC [24] | also measured |
| --- | --- | --- | --- | --- | --- | --- | --- | --- | --- | --- | --- | --- | --- | --- | --- | --- | --- | --- | --- | --- |
| 6.4 µM | 3.2 µM | 6.4 µM | 1.5 | CCCCC/C=C\C/C=C\CCCCCCCC(=O)OCC(COC(=O)CCCC[P+](c1ccccc1)(c1ccccc1)c1ccccc1)OC(=O)CCCC[P+](c1ccccc1)(c1ccccc1)c1ccccc1 (stereo not given) | 4.15 | 4.40 | 5.05 | 4.53 | 4.33 | 4.19 | 3.2 µM | 4.61 | 4.39 | 41.1 µM | 45 µM | 4.29 | 12.8 µM | 4.27 | 51.2 µM | Ratio IC50 [9]: 5; Ratio IC50 [10]: 1.1; MIC [13]: 12.8 µM; MBC [17]: 500 µM; Ratio IC50 [18]: 1.8; Ratio IC50 [25]: 1.1 |
| 30 µM | 7.5 µM | 7.5 µM | 1.9 | CCCCC/C=C\C/C=C\CCCCCCCC(=O)OC(COC(=O)CCCCCCC/C=C\CCCCCCCC)COC(=O)CCCC[P+](c1ccccc1)(c1ccccc1)c1ccccc1 (stereo not given) | 4.26 | 4.68 | 5.43 | 4.72 | 4.47 | 4.24 | 7.5 µM | 4.60 | 4.56 | 40 µM | 36 µM | 4.13 | 30 µM | 4.49 | 30 µM | Ratio IC50 [26]: 10.8; Ratio IC50 [27]: 1.2; selectivity ratio [28]: 1.6; Ratio IC50 [29]: 1.9; Ratio IC50 [30]: 1.2; selectivity ratio [31]: 1.4 |
